Converted amounts (≈) assume the structure as drawn. “And” between values parts separate entries of the source, which are not always exact repeats. Identical values can stand only once. “Also recorded” adds a separate entry of the source. Like-named read-outs stand apart in the source and are kept apart here.
Legend:
[1] = Solubility in different solvents, shake-flask method; assay type: physicochemical; conditions: room temperature
Protocol: Solubility of GT-14 was assessed in different solvents, namely, water, ethanol, PEG 300, PEG 400, propylene glycol, DMSO, DMA, olive oil, soybean oil, Labrasol and Labrafac, by the shake-flask method. Briefly, an excess amount of GT-14 was added to each of the selected solvents in a scintillation vial. The vials were allowed to shake on a mechanical reciprocating shaker at room temperature for 24 h to achieve solvent saturation. The samples were then centrifuged at 15,000 rpm for 15 min at room temperature. The supernatant with dissolved GT-14 was separated from the pellet of the undissolved compound. It was then diluted and analyzed by UPLC to determine the concentration of GT-14. All experiments were conducted in triplicates.

[2] = design: method as in PMID 38744031; conditions: rat, cited from earlier work
[3] = Tissue distribution and urinary excretion after IV dose in rats; assay type: in vivo, Sprague Dawley rats
Protocol: Each tissue sample was weighed and homogenized in a clean scintillation vial with 0.9% saline (1:1, w/v) using the VWR 200 Homogenizer to make tissue homogenates. Homogenization was carried out on ice at a speed of 5000 rpm for all tissues except the prostate and kidney (10,000 rpm). A five-point calibration curve was prepared for the different tissues in the range of 0.39–25 ng/g. One hundred (100) μL of tissue homogenate samples were mixed with 10 μL of Griseofulvin (1.5 μg/mL, IS). The samples were vortexed for 30 seconds which was followed by protein precipitation with methanol (300 μL), to extract GT-14. The samples were again vortexed for 30 seconds, and then shaken on an automatic shaker for 5 minutes, followed by centrifugation at 14000 rpm for 20 minutes at 4°C. The supernatant was transferred to a sample vial, and a 5 μL aliquot was injected for LC-MS/MS analysis.
Healthy male Sprague Dawley rats (250–300 g) were used to evaluate the plasma pharmacokinetics and tissue distribution of GT-14, with approved animal protocol from the Institutional Animal Care and Use Committee (IACUC) at Texas Southern University. The jugular vein of rats was cannulated in-house the day before intravenous dosing and blood sample collection. GT-14 was administered intravenously as a co-solvent formulation via the jugular vein cannula at a dose of 5 mg/kg. Serial blood samples (100 μL) were collected up to 24 h post-dose. The blood samples were centrifuged at 3000 rpm for 10 min at 4°C, and plasma was collected and stored at −80°C till analysis. Urine samples were also collected at intervals of 0–7 and 7–24 hrs. using metabolic cages and stored at −20°C until analysis. At 24 hr, animals were sacrificed and organs such as prostate, liver, lungs, spleen, brain, kidneys, and heart were collected, following whole body perfusion (transcardiac perfusion) with normal saline to reduce residual blood in tissues. Plasma and tissue homogenate samples were processed (described in section “Analytical Assay”) and analyzed by LC-MS/MS. Tissue concentrations were calculated using the following formula: Tissueconcentrationng/g=CHTS×VHTS/WTS where, CHTS is the concentration (ng/mL) of GT-14 in the homogenized tissue sample; VHTS is the volume of homogenized tissue sample (mL) and WTS is the weight of tissue sample (g).

[4] = Phase I biotransformation in rat liver microsomes; assay type: in vitro ADME; conditions: rat, 60 min incubation
Protocol: (§1) The in vitro phase I reaction was conducted using rat liver microsome, which contain the cytochrome P450 monooxygenases that catalyze oxidation, reduction, or hydrolysis reactions to introduce or expose functional groups on the substrate. NADPH is the cofactor to provide the reducing equivalents required for enzymatic activity, while the cofactor regeneration systems (NADP^+, glucose-6-phosphate, and glucose-6-phosphate dehydrogenase) maintain a sustained supply of NADPH during the reaction to facilitate the metabolite, Potassium phosphate buffer (KPI) mimics physiological conditions. The components were added to microcentrifuge tubes in the following order: The stock solution GT-14 (5 μL, 1 mM) was pre-incubated with rat liver microsomes (12.5 μL, 20 mg/mL, Corning Inc.) at 37°C in KPI buffer(452.5 μL, 50 mM) for 5 min before the reaction was initiated by the addition of an NADPH regenerating system, which consisted of 25μL of solution A1(1.3 mM NADP+, 3.3 mM glucose-6-phosphate, 3.3 mM magnesium chloride), and 5μL of solution B1 (0.5 units/mL glucose-6-phosphate dehydrogenase). Reaction mixtures were incubated at 37 °C in a shaker bath, shaking at 100 rpm. […] The quenched samples were vortexed, centrifuged (14,000 rpm for 15 min) and analyzed by UPLC.

rat liver microsomes = assay: Phase I biotransformation in rat liver microsomes; assay type: in vitro ADME; conditions: NADPH regenerating system, 37°C
Protocol: as §1

[5] = rat, IV 5 mg/kg, 24 hr post dose, 5 mg/kg

solubility at 24 h ([1]; DMA, thermodynamic from solid, n=3, read-out: Solubility in DMA): 107000 µg/mL (≈ 406 mM)
solubility at 24 h ([1]; DMSO, thermodynamic from solid, n=3, read-out: Solubility in DMSO): 80000 µg/mL (≈ 303 mM)
solubility at 24 h ([1]; Labrafac CC (Labrafac Lipophile WL1349), thermodynamic from solid, n=3, read-out: Solubility in Labrafac CC (Labrafac Lipophile WL1349)): 8600 µg/mL (≈ 32.5 mM)
solubility at 24 h ([1]; Labrasol, thermodynamic from solid, n=3, read-out: Solubility in Labrasol): 8100 µg/mL (≈ 30.6 mM)
solubility at 24 h ([1]; PEG 300, thermodynamic from solid, n=3, read-out: Solubility in PEG 300): 17200 µg/mL (≈ 65.1 mM)
solubility at 24 h ([1]; PEG 400, thermodynamic from solid, n=3, read-out: Solubility in PEG 400): 11300 µg/mL (≈ 42.7 mM)
solubility at 24 h ([1]; olive oil, thermodynamic from solid, n=3, read-out: Solubility in olive oil): 11400 µg/mL (≈ 43.1 mM)
solubility at 24 h ([1]; propylene glycol, thermodynamic from solid, n=3, read-out: Solubility in propylene glycol): 5300 µg/mL (≈ 20.1 mM)
Solubility in DMA ([1]; 24 h, n=3): freely soluble
Solubility in DMSO ([1]; 24 h, n=3): freely soluble
Solubility in Labrafac CC (Labrafac Lipophile WL1349) ([1]; 24 h, n=3): slightly soluble
Solubility in PEG 300 ([1]; 24 h, n=3): sparingly soluble
Solubility in PEG 400 ([1]; 24 h, n=3): sparingly soluble
Solubility in olive oil ([1]; 24 h, n=3): sparingly soluble
Solubility in propylene glycol ([1]; 24 h, n=3): slightly soluble
Solubility in soybean oil ([1]; 24 h, n=3): slightly soluble
Solubility in water ([1]; 24 h, n=3): very slightly soluble
solubility at 24 h ([1]; soybean oil, thermodynamic from solid, n=3, read-out: Solubility in soybean oil): 7800 µg/mL (≈ 29.5 mM)
solubility at 24 h ([1]; water, n=3, read-out: Solubility in water): 110 µg/mL (≈ 0.416 mM)
drug cleared from plasma ([3]; 24-h time point post single dose injection): ~99%
concentration at 24 h ([3]; male, Sprague Dawley, heart, rat, IV 5 mg/kg, 24 hr post dose, read-out: Tissue concentration, heart): 0.13 ± 0.06 ng/g
concentration at 24 h ([3]; male, Sprague Dawley, kidney, rat, IV 5 mg/kg, 24 hr post dose, read-out: Tissue concentration, kidney): 0.52 ± 0.61 ng/g
concentration at 24 h ([3]; male, Sprague Dawley, liver, rat, IV 5 mg/kg, 24 hr post dose, read-out: Tissue concentration, liver): 0.13 ± 0.01 ng/g
concentration at 24 h ([3]; male, Sprague Dawley, lung, rat, IV 5 mg/kg, 24 hr post dose, read-out: Tissue concentration, lung): 0.55 ± 0.15 ng/g
concentration at 24 h ([3]; male, Sprague Dawley, plasma, rat, IV 5 mg/kg, 24 hr post dose, read-out: Plasma concentration): 9.62 ± 2.82 ng/mL
concentration at 24 h ([3]; male, Sprague Dawley, prostate, rat, IV 5 mg/kg, 24 hr post dose, read-out: Tissue concentration, prostate): 2.19 ± 1.26 ng/g
Kp at 24 h ([3]; male, Sprague Dawley, rat, intravenous, 5 mg/kg, all tissues, 24 hr post dose, read-out: tissue-to-plasma ratios): < 1
GT-14 in urine ([3]; rat, IV 5 mg/kg, urine 0–7 and 7–24 hrs): not detected
remaining at 1 h, 10 μM [4]: > 90%
Compound: C/C(=N\c1ccc(O)cc1)c1cc2ccccc2n1C [GT-14, (E)-4-((1-(1-methyl-1H-indol-2-yl)ethylidene)amino)phenol]
maximum plasma concentration (Cmax) ([2]; IV bolus 5 mg/kg, two-compartment model): approximately 200 ng/mL
terminal plasma elimination half-life ([2]; IV bolus 5 mg/kg, 5 mg/kg): 4.4678 h and 4.468 h
AUC0–∞ ([2]; IV bolus 5 mg/kg): 23,742 min*ng/mL
apparent volume of distribution (Vd) ([2]; IV bolus 5 mg/kg): 25,205 ± 2,585 mL/kg
distribution half-life ([2]; IV bolus 5 mg/kg): 0.267 h
mean systemic clearance (CL) ([2]; IV bolus 5 mg/kg): 229.9 mL/min/kg
Plasma half-life in rats ([2]; IV): 4 to 5 h
terminal plasma elimination half-life ([2]; IV): > 4 h
GT-14 in brain [3, 5]: not detected; also recorded: detected in all sampled tissues except the brain
Tissue distribution (rank order, accumulation) [3, 5]: highest concentration of GT-14 in the prostate, followed by the kidneys, lungs, heart, and liver; also recorded: High accumulation in prostate
Phase I metabolism (UPLC peaks) (rat liver microsomes): undergoes Phase I metabolism; also recorded: underwent Phase I metabolism; also recorded: at least four additional peaks appeared

— paper PMC13050480, “Preclinical Development of GT-14, a Novel Inhibitor of Gαi2 Protein: Comprehensive Evaluation of Physicochemical, Metabolic Characteristics and Tissue Distribution” (The AAPS journal, 2025)
